# Conditions: buffer; pH 7.4; 200.0 µM
row,SMILES,solubility kinetic [µg/mL]
1,Cc1ccc(C)c(-c2csc(Nc3ncccn3)n2)c1,0.2
2,COc1ccc(CNC(=O)COC(=O)c2sccc2C)cc1OC,12.4
3,O=C(COC(=O)/C=C/c1ccc(F)cc1)Nc1ccc(S(=O)(=O)N2CCOCC2)cc1,6.1
4,CCn1cc(S(=O)(=O)Nc2ccc(Cl)cc2F)cn1,> 45.6
5,O=C(O)C1CCN(C(=O)c2cc(F)cc3c2OCOC3)CC1,> 46.4
6,O=C(O)C1=NN(c2ccccc2)C(=O)C1,> 30.6
7,O=C(c1ccoc1)N1CCC(CO)(CCc2ccccc2)CC1,46
8,O=C(c1ccc(NC(=O)C2(c3ccccc3)CCCC2)cc1)N1CCOCC1,> 56.8
9,COc1cc(OC)cc(C(=O)NCCCn2ccnc2)c1,> 43.4
10,Cc1ccc(NC(=O)CCNC(=O)c2ccco2)cc1Cl,20.3
11,CCCc1nnc(SCC(=O)Nc2cc(C)on2)n1CCOC,> 50.9
12,COc1cccc(NC(=O)CN(C)C(=O)c2cccc(S(=O)(=O)N3CC4(C)CC3CC(C)(C)C4)c2)c1 (centres undefined),2
13,Cc1ccc(C)c(N2CCN(CCN3CCCCC3)CC2)c1.Cl,36.5
14,CNc1nc(Cl)c(SC)c(NCc2ccc(F)cc2)n1,0.6
15,CN1CCN(C(=O)c2cc([N+](=O)[O-])ccc2Cl)CC1,> 42.6
16,O=C(Cc1ccc(Cl)cc1Cl)OCC(=O)N1CCCCC1,> 49.5
17,O=C1C2=C(CCCC2)C(=O)N1CNc1ccccc1,33
18,COC(=O)c1ccc(NC(=O)Nc2ccc3c(c2)OCO3)cc1,0.8
19,CCc1cc(C(=O)c2ccc(OC)cc2)c(NC(=O)CCC(=O)O)s1,> 54.2
20,CSc1ccc(C(=O)NCC(c2ccco2)N(C)C)cc1[N+](=O)[O-] (centres undefined),> 52.4

row,SMILES,solubility kinetic [µg/mL]
1,Cc1ccc(OCC(=O)OCC(=O)NC2CC2)cc1C,> 41.6
2,O=C(O)C1C2CCC(C2)C1C(=O)N1CCCC1 (centres undefined),> 35.6
3,O=C(O)c1ccc(S(=O)(=O)NCc2cccnc2)cc1,> 43.8
4,CSCCCNC(=S)N1CCc2ccccc2C1,> 42.1
5,CC(=O)N1CCN(C(=O)CCC(=O)O)CC1,30.9
6,COc1ccc(S(=O)(=O)N2CCCCC2)cc1NC(=O)C1CC(=O)N(Cc2ccco2)C1 (centres undefined),> 69.2
7,CCOC(=O)C1=C(C)NC(C)=C(C(=O)OC)C1c1ccco1 (centres undefined),34.1
8,CC(C(=O)C12CC3CC(CC(C3)C1)C2)N1CCOCC1.Cl (centres undefined),> 47.1
9,O=C(/C=C/c1ccccc1Cl)N1CCOCC1,36.6
10,COc1ccc(/C=N/OC(=O)c2ccc(Cl)cc2)c(Cl)c1OC,< 0.8
11,Cn1cnc2c1c(=O)[nH]c(=O)n2Cc1ccccc1,> 38.4
12,COCc1cc(=O)[nH]c(SC)n1,> 27.9
13,CCOC(=O)c1cc2sccc2n1CC(=O)C(C)(C)C,< 0.6
14,CC(=O)N1CCN(c2ccc(S(=O)(=O)N3CCOCC3)cc2[N+](=O)[O-])CC1,> 59.8
15,COc1ccc(CN2CCN(C3CCC3)CC2CCO)c(F)c1 (centres undefined),42.2
16,COC(=O)c1cc(S(=O)(=O)N2CCCC2=O)c(Cl)cc1Cl,> 52.8
17,COc1ccc(OC(=O)N2CCOCC2)cc1,> 35.6
18,N#Cc1c(Nc2ccc(Cl)cc2)s[nH]c1=O,> 37.8
19,COC(=O)NC1(C(F)(F)F)C(=O)Nc2c1c(=O)n(C)c(=O)n2C (centres undefined),47.3
20,O=C(NCc1nc2ccccc2[nH]1)C1CCCCC1,> 38.6

row,SMILES,solubility kinetic [µg/mL]
1,CC1CCC2(CC1)NC(=O)N(CC(=O)NCc1ccc(Cl)cc1)C2=O (centres undefined),6.3
2,COc1ccc(CCNC(=O)COC(=O)C2CC2)cc1,25.4
3,O=C(NC1CC2CCCC(C1)N2C(=O)Nc1ccccc1Cl)C1CC1 (centres undefined),> 54.3
4,COC(=O)c1sccc1-n1cccc1C(=O)C(=O)N1CCOCC1,46.3
5,O=C(NCC1CCCCC1)c1cccc(-c2ccc(O)cc2)c1,< 0.7
6,O=C(CN1C(=O)NC(Cc2c[nH]c3ccccc23)C1=O)NC1CC1 (centres undefined),> 49
7,CN(CC(=O)NC1CCCCCC1)S(=O)(=O)c1cnc[nH]1,> 47.2
8,FC(F)(F)c1ccnc(N2CCN(Cc3cnc(-c4ccccc4)[nH]3)CC2)c1,26.8
9,COc1cc(-n2c(C)nc3cc(C(=O)O)ccc32)cc(OC)c1OC,> 51.4
10,Cc1cc(C(=O)NC2CCC(C)CC2)c(C)o1 (centres undefined),12.6
11,S=C([S-])N1CCCC1.[NH4+],16.6
12,Clc1ccc(SCCCN2CCCCC2)cc1.O=C(O)C(=O)O,> 54
13,CN(C)CCCNc1nc(-c2ccccc2)c2c(c1C#N)CC(C)(C)OC2,47.3
14,CC(Sc1cccc[n+]1[O-])C(=O)Nc1cc(Cl)c(Cl)cc1Cl (centres undefined),53.5
15,CCN(CC)C(=O)c1ccc(NC(=O)COc2ccccc2F)cc1,> 51.7
16,O=C(CCC(=O)N1CCCCCC1)Nc1ccc([N+](=O)[O-])cc1,9.2
17,COc1cccc(NC(=O)NCCN2CCCCC2)c1,37.8
18,CCCN(CCC)CC(O)COc1ccc2c(c1)OCO2.Cl (centres undefined),45.5

# Continued, values first:
row,solubility kinetic [µg/mL],SMILES
1,< 0.2,O=C(Nc1ccccc1)Nc1nc2ccccc2s1
2,< 0.3,Cc1cc(Nc2ccc(Br)cc2)nc(-c2ccccc2O)n1
3,> 76.7,COCCN(C(=O)c1cc(-c2ccco2)nc2ccccc12)c1c(N)n(Cc2ccccc2)c(=O)[nH]c1=O
4,8.8,CC1CC(=O)Nc2ccccc2N1C(=O)COc1ccc2ccccc2c1 (centres undefined)
5,> 40.8,Cl.NCC1CC2c3ccccc3C1c1ccccc12 (centres undefined)
6,2.8,CCc1cc2c(=O)n(-c3ccccc3)c(SCC(N)=O)nc2s1
7,4.4,Cc1ccc(CSC2=NCCN2C(=O)C(C)Oc2ccccc2)cc1 (centres undefined)
8,0.7,O=C(CSc1nc2ncccc2[nH]1)c1ccc2c(c1)OCO2
9,> 43.9,CC(=O)C1=C(c2ccccc2)NC(=O)NC1c1ccccc1 (centres undefined)
10,10.4,Nc1ccc(Oc2ccccc2-c2ccccc2)cc1
11,0.4,CCOC(=O)c1cccc(NC(=S)NCc2ccc(C)cc2)c1
12,29.5,O=C(CSc1ccccn1)Nc1cccc2ccccc12
13,7.1,COc1ccc(NC(=O)CCCC(=O)c2ccccc2)cc1
14,> 57.4,COCCn1c(Cc2ccccc2)nnc1SCC(=O)Nc1ccccc1
15,> 38.4,O=C1c2ccccc2NC(c2cccc(O)c2)N1O (centres undefined)
16,50.2,CON(C)S(=O)(=O)c1cccc(C(=O)N(CC(=O)Nc2ccccc2C(F)(F)F)Cc2ccco2)c1
17,> 47.5,O=C(N/N=C/c1cccnc1)c1cc(C2CC2)nc2ccccc12
18,> 62.4,CC(NC(=O)c1ccc(S(=O)(=O)Nc2ccccc2Cl)cc1)c1ccncc1 (centres undefined)
19,> 43.7,NS(=O)(=O)c1cccc(NC(=O)Nc2ccccc2)c1
20,14.8,Cc1ccc(OCCC(=O)Nc2ccc3c(c2)OCO3)cc1
21,> 49.9,Cc1cc(OCCCC(=O)NCCc2ccccn2)ccc1Cl
22,> 47.6,O=C(O)c1ccc(N2C(=O)c3cccc4cccc(c34)C2=O)cc1
23,> 50.8,C=CCNC(=O)c1ccc2c(c1)N(CC)C(=O)c1ccccc1S2
24,0.7,O=C(Nc1ccccc1N1CCCCC1)c1ccc(OC(F)F)cc1
25,> 49.4,COC(=O)CCN(C(=O)c1cccc([N+](=O)[O-])c1)c1ccccn1
26,34.3,COC(=O)Cc1nc(Nc2ccccc2)sc1C

# From PubChem BioAssay AID1996
